# Source: US10551384B2, “MTOR kinase mutations and methods of use thereof” (RUTGERS, THE STATE UNIVERSITY OF NEW JERSEY, priority 2016, dated 2020)
# Assays:
# [1] = test system: xenograft tumors derived from SW480 cells expressing WT mTOR; assay: SW480 xenograft tumor model, WT mTOR; type: in vivo, mice
# Method: FIGS. 6A-E. L2185A mutation renders resistance of xenograft tumors to mTOR kinase inhibitors. (FIG. 6A) Mice bearing xenograft tumors derived from SW480 cells expressing WT mTOR were administered with INK128 at 1 mg/kg or 0.3 mg/kg, once daily via intraperitoneal injection. Shown are representative animals and excised tumors after drug treatment. (FIG. 6B) Same as FIG. 6A except xenograft tumors were derived from SW480 carrying homozygous mTOR(L2185A) alleles. (FIG. 6C) Tumor volume measurement for SW480 xenograft tumors expressing mTOR (WT) (expressed as means±SD; n=8, *P<0.01, vs. vehicle control). (FIG. 6D) Tumor volume measurement for SW480 xenograft tumors expressing mTOR(L2185A) mutant (expressed as means±SD; n=8). (FIG. 6E) Tissue extracts from xenograft tumors at the end of treatment with or without 1 mg/kg INK128 were analyzed for the level of P-S6K, S6K, P-S6, S6, P-4E-BP1, 4E-BP1, P-AKT and AKT was analyzed by immunoblot. Six tumor samples from each animal group were shown with each lane representing an individual tumor sample.
# Female athymic NCr-nu/nu mice (4-6 weeks old) were obtained from Taconic Farms. […] Tumor volume was calculated by the following formula: tumor volume (mm^3)=(shorter diameter^2× longer diameter)/2 and are presented as means±SD (n=8) (Zhang, Y., and Zheng, X. (2012). Cell Cycle 11, 594-603). […]
# [2] = test system: Flag-mTOR(L2185A) in HEK293T cells; assay: mTOR signaling immunoblot in HEK293T cells transiently expressing Flag-mTOR(L2185A); type: cell-based, human; details: various concentrations, 1 hr, vs WT Flag-mTOR
# Method: (FIG. 10A) Flag-mTOR(L2185A), when transiently expressed in HEK293T cells, confers drug resistance to mTOR kinase inhibitors. HEK293T cells transiently expressing WT and L2185A mutant Flag-mTOR were treated with various concentrations of INK-128, OSI-027 for 1 hr. The effect on the level of P-S6K, S6K, P-4E-BP1, 4EB-P1, P-AKT and AKT was analyzed by immunoblot. (FIG. 10B) Sequencing verification of genome-engineered SW480 and H460 cells carrying homozygous and heterozygous L2185A mutations in mTOR locus. (FIG. 10C) Independent clones of engineered SW480 cells confer similar drug resistance. Cells were treated with various concentrations of AZD8055 and INK-128 for 2 days. Cell growth was measured by SRB assay. Clones #1, 3 carry heterozygous L2185A mutation. Clones #2, 4 carry homozygous L2185A mutation. Data represent means±SD in three independent experiments. (FIG. 10D) SW480 cells carrying heterozygous and homozygous mTOR(L2185A) mutant alleles have similar drug resistance to mTOR kinase inhibitors. SW480 cells carrying homozygous WT and L2185A mutant mTOR alleles were treated with various concentrations of AZD8055, INK-128, OSI-027, and PP242 for 2 days. Cell growth was measured by SRB assay. […] Cell growth was measured by SRB assay. […] The effect on level of P-S6K, P-4E-BP1 and P-AKT was analyzed by immunoblot. […] The growth of H460 cells was measured by SRB assay. […]
structure (smiles),measurement,setting,value
CC(C)n1nc(-c2ccc3oc(N)nc3c2)c2c(N)ncnc21 [INK128],growth of WT mTOR xenograft tumors,"[1]; 1 mg/kg or 0.3 mg/kg once daily, intraperitoneal injection",strongly attenuates growth
same,mTOR signaling in WT mTOR xenograft tumors,"[1]; 1 mg/kg, tumor extracts at end of treatment, immunoblot",complete blockadge of mTOR signaling
same,"drug resistance of mTOR signaling (P-S6K, P-4E-BP1, P-AKT) with Flag-mTOR(L2185A)",[2],confers resistance
